Here are results for three molecules from paper PMC9807592, “New thioxothiazolidinyl-acetamides derivatives as potent urease inhibitors: design, synthesis, in vitro inhibition, and molecular dynamic simulation” (Scientific Reports, 2023).

Converted amounts (≈) assume the structure as drawn.

Sequence of urease (P07374 whole entry, looked up): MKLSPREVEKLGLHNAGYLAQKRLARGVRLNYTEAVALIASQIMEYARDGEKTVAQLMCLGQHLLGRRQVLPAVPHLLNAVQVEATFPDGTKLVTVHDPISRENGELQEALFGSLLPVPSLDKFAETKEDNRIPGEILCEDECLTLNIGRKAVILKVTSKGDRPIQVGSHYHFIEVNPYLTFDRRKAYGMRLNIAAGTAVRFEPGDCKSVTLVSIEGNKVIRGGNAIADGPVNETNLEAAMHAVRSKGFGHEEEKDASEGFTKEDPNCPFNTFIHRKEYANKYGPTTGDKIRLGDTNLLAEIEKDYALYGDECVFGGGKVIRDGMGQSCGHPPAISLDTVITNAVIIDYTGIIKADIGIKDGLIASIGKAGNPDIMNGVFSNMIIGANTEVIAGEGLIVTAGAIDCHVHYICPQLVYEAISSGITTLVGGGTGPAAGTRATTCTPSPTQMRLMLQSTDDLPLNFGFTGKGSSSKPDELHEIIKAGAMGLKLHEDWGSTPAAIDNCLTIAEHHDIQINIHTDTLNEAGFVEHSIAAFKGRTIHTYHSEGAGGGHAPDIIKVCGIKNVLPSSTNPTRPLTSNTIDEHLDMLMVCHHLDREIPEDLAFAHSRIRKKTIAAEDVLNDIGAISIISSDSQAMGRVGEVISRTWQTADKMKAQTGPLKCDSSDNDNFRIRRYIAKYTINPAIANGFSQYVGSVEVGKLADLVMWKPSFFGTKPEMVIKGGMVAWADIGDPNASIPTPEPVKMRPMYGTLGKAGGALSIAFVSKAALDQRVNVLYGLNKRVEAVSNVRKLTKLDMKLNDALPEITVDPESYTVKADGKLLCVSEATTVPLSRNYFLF

System in one data set: not given
Test: not given
Settings: not given
Usually melting point stands for the temperature of the solid-liquid transition. `CC(C)CNC(=O)CC1SC(=S)N(Cc2ccccc2)C1=O` (centres unmarked) [Compound 6f, 2-(3-benzyl-4-oxo-2-thioxothiazolidin-5-yl)-N-isobutylacetamide] registered a melting point of 164 to 166 °C.
The molecule `C=CCNC(=O)CC1SC(=S)N(CC(C)C)C1=O` (centres unmarked) [Compound 6o, N-allyl-2-(3-isobutyl-4-oxo-2-thioxothiazolidin-5-yl)acetamide] displayed a melting point of 164 to 166 °C.
On the same count and under the same terms, the value for `O=C(CC1SC(=S)N(Cc2ccccc2)C1=O)NC1CCCC1` (centres unmarked) [Compound 6h, 2-(3-benzyl-4-oxo-2-thioxothiazolidin-5-yl)-N-cyclopentylacetamide] was 167 to 169 °C.

The subject of another data set is urease-positive clinical isolate of P. vulgaris. As to the kind of experiment: Urease inhibitory activity against P. vulgaris (Christensen's urea medium, 560 nm). The class given is cell-based. The conditions noted are these: Proteus vulgaris; 24 h at 37 °C, read at 560 nm. How it is done:
To assess the inhibition of urease activity by synthetic compounds, Christensen’s urea.
medium containing urea and phenol red (pH indicator) was used for the preparation of two-fold serial dilutions of compounds in 96-well microtiter plates. Cell suspension of a urease-positive clinical isolate of P. vulgaris was prepared in a urea medium and added to each well. The turbidity of bacterial suspension was adjusted to 0.5 McFarland using a spectrophotometer, and also, the density of inoculated suspension was 1 × 10^6 CFU/ml. The concentrations of compounds were in the range of 1–512 µg/ml.
Inoculated media without adding any compound was considered a positive control, while uninoculated media were used as a negative control (blank). The anti-urease activity was assessed spectroscopically at 560 nm after 24 h incubation at 37 °C[14].
By IC50 is commonly meant the midpoint of a concentration-inhibition curve. Lower therefore signals inhibition by little substance. `CC(C)CNC(=O)CC1SC(=S)N(Cc2ccccc2)C1=O` (centres unmarked) [Compound 6f, 2-(3-benzyl-4-oxo-2-thioxothiazolidin-5-yl)-N-isobutylacetamide] registered an IC50 of 32.4 ± 5.26 µg/mL (≈ 96.2 µM).
For the molecule `O=C(CC1SC(=S)N(Cc2ccccc2)C1=O)NC1CCCC1` (centres unmarked) [Compound 6h, 2-(3-benzyl-4-oxo-2-thioxothiazolidin-5-yl)-N-cyclopentylacetamide], the half-maximal inhibitory concentration (IC50) was at least 512 µg/mL.

The data set is the same for the next values; noted with them: Proteus vulgaris; at 512 µg/ml.
By inhibition is commonly meant the share of the control response that was lost under treatment. `O=C(CC1SC(=S)N(Cc2ccccc2)C1=O)NC1CCCC1` (centres unmarked) [Compound 6h, 2-(3-benzyl-4-oxo-2-thioxothiazolidin-5-yl)-N-cyclopentylacetamide]: the inhibition at 512 µg/mL worked out at 48.5%.

The subject of a further data set is methicillin-resistant Staphylococcus aureus (MRSA) isolates. Briefly: Antimicrobial activity against resistant isolates. The class given is cell-based.
Settings: not given
How it is done: Regarding the antibacterial activity of 6n and 6o against the standard strain of S. aureus, these derivatives were tested against methicillin-resistant Staphylococcus aureus (MRSA) isolates.
(§1) Briefly, twofold serial dilutions of the compounds were prepared in Mueller–Hinton Broth (MHB, HiMedia) for bacterial strains and RPMI-1640 (Sigma-Aldrich) for yeast strain (Ranging 1–512 µg/ml). Then, 100 μL of each dilution was transferred into the well of a microtiter plate and inoculated with 100 μL of cell suspension with a final density of 1–5 × 10^3 CFU/ml for yeasts and 1–1.5 × 10^6 cells/ml for bacteria. Plates were incubated at proper temperature overnight, and the minimum inhibitory concentration (MIC) of compounds was determined as the lowest concentration that prevented visible growth of tested microorganisms compared with the growth in the control wells (wells without tested compounds). Moreover, the minimum bactericidal/fungicidal concentration (MBC/MFC) of compounds was determined by transferring the 10 µl of clear wells into the agar media. Standard antibacterial and antifungal agents (Ciprofloxacin and Fluconazole) were evaluated. All experiments were performed in duplicate[30],[31].
The MIC is the smallest concentration in the dilution series that meets the test's criterion for growth inhibition. Molecule `C=CCNC(=O)CC1SC(=S)N(CC(C)C)C1=O` (centres unmarked) [Compound 6o, N-allyl-2-(3-isobutyl-4-oxo-2-thioxothiazolidin-5-yl)acetamide] came in with a minimum inhibitory concentration (MIC) of 512 µg/mL (≈ 1790 µM).

For the next data set, the system named is C. albicans ATCC 10261. Briefly: Antimicrobial activity, broth microdilution (CLSI). The conditions noted are these: Candida albicans, ATCC10261. The class given is cell-based. On the procedure: The antimicrobial activity of designed compounds was investigated using broth microdilution.
as §1
A general note: Dilution methods test growth across graded concentrations, often in twofold steps.
In turn, `CC(C)CNC(=O)CC1SC(=S)N(Cc2ccccc2)C1=O` (centres unmarked) [Compound 6f, 2-(3-benzyl-4-oxo-2-thioxothiazolidin-5-yl)-N-isobutylacetamide] showed an MIC of over 512 µg/mL.
For the molecule `C=CCNC(=O)CC1SC(=S)N(CC(C)C)C1=O` (centres unmarked) [Compound 6o, N-allyl-2-(3-isobutyl-4-oxo-2-thioxothiazolidin-5-yl)acetamide], the minimal inhibitory concentration (MIC) was over 512 µg/mL.
On the same count and under the same terms, under `O=C(CC1SC(=S)N(Cc2ccccc2)C1=O)NC1CCCC1` (centres unmarked) [Compound 6h, 2-(3-benzyl-4-oxo-2-thioxothiazolidin-5-yl)-N-cyclopentylacetamide] stands over 512 µg/mL.

Another data set has as its target urease (Canavalia ensiformis, UniProt P07374). As to the kind of experiment: biochemical.
Settings: not given
The class given is biochemical. On the procedure: The assay was performed exactly according to our previous report. Briefly, 850 μL of urea and 15 μL urease (0.135 units dissolved in PBS, pH 7.4) were added to 100 μL of the synthesized derivatives at different concentrations. After 30 min, to 100 μL of the incubated solution, 500 μL solution I (5.0 g phenol and 25.0 mg sodium nitroprusside in 500 mL water) was added followed by the addition of 500 μL of solution II (2.5 g sodium hydroxide, 4.2 mL sodium hypochlorite, and 5% chlorine in 500 mL water) which was further incubated at 37 °C for 30 min. The absorbance was determined by measuring indophenols at 625 nm. Thiourea was used as the standard inhibitor for urease. The IC50 values for all synthesized compounds were calculated using GraphPad Prism software (GraphPad Software, Inc., San Diego, CA)[20].
In turn, `CC(C)CNC(=O)CC1SC(=S)N(Cc2ccccc2)C1=O` (centres unmarked) [Compound 6f, 2-(3-benzyl-4-oxo-2-thioxothiazolidin-5-yl)-N-isobutylacetamide] displayed a half-inhibitory concentration (IC50) of 1590 ± 470 nM.
Still for that read-out and setting: the value for `C=CCNC(=O)CC1SC(=S)N(CC(C)C)C1=O` (centres unmarked) [Compound 6o, N-allyl-2-(3-isobutyl-4-oxo-2-thioxothiazolidin-5-yl)acetamide] was 9270 ± 1650 nM; that for `O=C(CC1SC(=S)N(Cc2ccccc2)C1=O)NC1CCCC1` (centres unmarked) [Compound 6h, 2-(3-benzyl-4-oxo-2-thioxothiazolidin-5-yl)-N-cyclopentylacetamide] was 1860 ± 290 nM.

In a further data set the test system is S. aureus biofilm. As to the kind of experiment: Inhibition of biofilm formation (crystal violet assay). Type of data set: cell-based. The conditions noted are these: Staphylococcus aureus, read-out: inhibition in the development of biofilm by S. aureus. On the procedure: To evaluate the ability of the synthesized compounds 6a-i to prevent biofilm formation by standard species of S. aureus (ATCC25923) and MRSA strain, biofilms were pre-formed in 96 well plates, as previously described. Firstly, bacterial strains were inoculated into Tryptic Soy Broth (TSB) medium. The cells were cultivated on a shaker overnight for 180 r/min at 37 °C. Then, the suspension was centrifuged, and the cells were washed with PBS three times. Diluted cell suspension of strains was added into the wells with 1 × 10^6 final concentration. The plates were incubated for 4 h at 37 °C. After that, 100 μl of each of the dissolved compounds was added to a final concentration of […] in the wells. The plates were further incubated for 24 h at 37 °C. Following incubation, the crystal violet assay was performed to evaluate the inhibition of biofilm formation. For this purpose, the supernatant of the wells was aspirated gently, and the wells were washed three times with sterile distilled water. […] Assessment of biofilm formation was performed by transferring 100 μl of the destaining solution to a new plate and measuring the absorbance at 590 nm using a microplate reader. […] The mean absorbance (OD590 nm) of the samples was determined, and percentage inhibition was obtained using Eq. (1) as follows: 1 Percentageinhibition:ODblank-ODtest×100/ODblank
On to `C=CCNC(=O)CC1SC(=S)N(CC(C)C)C1=O` (centres unmarked) [Compound 6o, N-allyl-2-(3-isobutyl-4-oxo-2-thioxothiazolidin-5-yl)acetamide], for which the inhibition at 512 µg/mL was 27%.

A further data set concerns S. aureus ATCC 25923. Briefly: Antimicrobial activity, broth microdilution (CLSI). Type of data set: cell-based. The conditions noted are these: Staphylococcus aureus, ATCC25923. How it is done: (§2) Then, 100 μL of each dilution was transferred into the well of a microtiter plate and inoculated with 100 μL of cell suspension with a final density of 1–5 × 10^3 CFU/ml for yeasts and 1–1.5 × 10^6 cells/ml for bacteria. Plates were incubated at proper temperature overnight, and the minimum inhibitory concentration (MIC) of compounds was determined as the lowest concentration that prevented visible growth of tested microorganisms compared with the growth in the control wells (wells without tested compounds). […] All experiments were performed in duplicate[30],[31].
Take `CC(C)CNC(=O)CC1SC(=S)N(Cc2ccccc2)C1=O` (centres unmarked) [Compound 6f, 2-(3-benzyl-4-oxo-2-thioxothiazolidin-5-yl)-N-isobutylacetamide]: the MIC is over 512 µg/mL.
The MBC is the smallest concentration meeting the test's criterion for killing. The molecule `C=CCNC(=O)CC1SC(=S)N(CC(C)C)C1=O` (centres unmarked) [Compound 6o, N-allyl-2-(3-isobutyl-4-oxo-2-thioxothiazolidin-5-yl)acetamide] displayed a minimal bactericidal concentration (MBC) of 256 µg/mL (≈ 894 µM) and an MIC of 128 µg/mL (≈ 447 µM).
In the case of `O=C(CC1SC(=S)N(Cc2ccccc2)C1=O)NC1CCCC1` (centres unmarked) [Compound 6h, 2-(3-benzyl-4-oxo-2-thioxothiazolidin-5-yl)-N-cyclopentylacetamide], the minimum inhibitory concentration (MIC) was over 512 µg/mL.

The next data set has as its system E. coli ATCC 25922. As to the kind of experiment: Antimicrobial activity, broth microdilution (CLSI). Type of data set: cell-based.
Settings: not given
How it is done: as §2
Consider `C=CCNC(=O)CC1SC(=S)N(CC(C)C)C1=O` (centres unmarked) [Compound 6o, N-allyl-2-(3-isobutyl-4-oxo-2-thioxothiazolidin-5-yl)acetamide], for which the MIC was determined as 512 µg/mL (≈ 1790 µM).

Staying with this data set, now noted: Escherichia coli, ATCC25922.
In the case of `C=CCNC(=O)CC1SC(=S)N(CC(C)C)C1=O` (centres unmarked) [Compound 6o, N-allyl-2-(3-isobutyl-4-oxo-2-thioxothiazolidin-5-yl)acetamide], the minimal bactericidal concentration (MBC) was over 512 µg/mL.

Still in this data set, the particulars now being: Escherichia coli, ATCC25922, read-out: MIC.
On to `CC(C)CNC(=O)CC1SC(=S)N(Cc2ccccc2)C1=O` (centres unmarked) [Compound 6f, 2-(3-benzyl-4-oxo-2-thioxothiazolidin-5-yl)-N-isobutylacetamide], for which the MIC is over 512 µg/mL.
The same measure, in the same setting: the value for `C=CCNC(=O)CC1SC(=S)N(CC(C)C)C1=O` (centres unmarked) [Compound 6o, N-allyl-2-(3-isobutyl-4-oxo-2-thioxothiazolidin-5-yl)acetamide] was 512 µg/mL (≈ 1790 µM).
On to `O=C(CC1SC(=S)N(Cc2ccccc2)C1=O)NC1CCCC1` (centres unmarked) [Compound 6h, 2-(3-benzyl-4-oxo-2-thioxothiazolidin-5-yl)-N-cyclopentylacetamide], for which the MIC is over 512 µg/mL.

The test system of a further data set is clinical isolate of P. vulgaris. Briefly: Antimicrobial activity, broth microdilution (CLSI). Type of data set: cell-based. The conditions noted are these: Proteus vulgaris. On the procedure: as §2
`CC(C)CNC(=O)CC1SC(=S)N(Cc2ccccc2)C1=O` (centres unmarked) [Compound 6f, 2-(3-benzyl-4-oxo-2-thioxothiazolidin-5-yl)-N-isobutylacetamide] showed a minimal inhibitory concentration (MIC) of over 512 µg/mL.
In the case of `C=CCNC(=O)CC1SC(=S)N(CC(C)C)C1=O` (centres unmarked) [Compound 6o, N-allyl-2-(3-isobutyl-4-oxo-2-thioxothiazolidin-5-yl)acetamide], the MIC was over 512 µg/mL.
The same measure, in the same setting: the value for `O=C(CC1SC(=S)N(Cc2ccccc2)C1=O)NC1CCCC1` (centres unmarked) [Compound 6h, 2-(3-benzyl-4-oxo-2-thioxothiazolidin-5-yl)-N-cyclopentylacetamide] was over 512 µg/mL.

System in a further data set: not listed separately
As to the kind of experiment: In vitro cytotoxic evaluation (MTT assay). The conditions noted are these: human, MOLT-4 cells. The class given is cell-based. How it is done: MOLT-4 (human acute lymphoblastic leukemia) cells were cultures in RPMI-1640 medium supplemented with 10% heat-inactivated fetal bovine serum. Cell viability was measured by the MTT assay. MOLT-4 cells were seeded into 96-well micro-culture plates. After 24 h, the culture medium was replaced with a medium containing different concentrations of newly synthesized derivatives. Control wells were supplemented with the same volume of growth medium not containing any drugs. Cells were then incubated at 37 °C for 72 h. At the end of the exposure time, the medium was removed and MTT solution of 0.5 mg/ml was added to each well. The plates were incubated at 37 °C for 4 h, after which DMSO was added to each well to solubilize the formed formazan crystals, and the absorbance of each well was read with a microplate reader at 570 nm.
(In general: Tetrazolium assays rely on reduction of a dye to a coloured formazan, in cell work by metabolically active cells.)
What is called viability is the share of living cells, or the viability signal relative to a control. A low value points to a greater loss of cells. `CC(C)CNC(=O)CC1SC(=S)N(Cc2ccccc2)C1=O` (centres unmarked) [Compound 6f, 2-(3-benzyl-4-oxo-2-thioxothiazolidin-5-yl)-N-isobutylacetamide]: the viability at 72 h, 100 µM was determined as 91.9 ± 1.3%.
`C=CCNC(=O)CC1SC(=S)N(CC(C)C)C1=O` (centres unmarked) [Compound 6o, N-allyl-2-(3-isobutyl-4-oxo-2-thioxothiazolidin-5-yl)acetamide] returned a viability at 72 h, 100 µM of 97.3 ± 3.5%.
On the same count and under the same terms, the value for `O=C(CC1SC(=S)N(Cc2ccccc2)C1=O)NC1CCCC1` (centres unmarked) [Compound 6h, 2-(3-benzyl-4-oxo-2-thioxothiazolidin-5-yl)-N-cyclopentylacetamide] was 95 ± 4.2%.
